Assay results as given in PMC8760490, “Discovery of novel furanylbenzamide inhibitors that target oncogenic tyrosine phosphatase SHP2 in leukemia cells” (The Journal of Biological Chemistry, 2021).

Tests used:
[1] = target: T1, full-length SHP2 WT (SHP2-WT) (Homo sapiens, UniProt Q06124); test: DiFMUP fluorescence phosphatase inhibition assay, SHP2-WT activated with IRS-1 peptide; type: biochemical; conditions: DiFMUP at Km (60 μM), pH 6.0
T1 construct: Recombinant human full-length SHP2 (1–594) WT and E76K mutants; made in house
Source text: To test the synthesized compounds for their potential to inhibit SHP2 activity, a fluorescence intensity-based assay using 6,8-difluoro-4-methylumbelliferyl phosphate (DiFMUP) as the substrate was adapted for three recombinant SHP2 constructs: (1) the SHP2 catalytic domain (SHP2cat; residues 248–527), (2) the full-length SHP2-E76K oncogenic mutant, and (3) the full-length SHP2 WT (SHP2-WT). The recombinant SHP2 proteins were expressed and purified as described previously ([36]). A dually phosphorylated peptide derived from the insulin receptor substrate 1 (IRS-1) served as a surrogate binding protein and was used to activate SHP2-WT ([30], [36]). […] Michaelis–Menten experiments to determine the DiFMUP Michaelis–Menten constant (Km) for each SHP2 construct were performed as described previously ([36]) and yielded the following values: SHP2-WT, Km = 60 μM; SHP2-E76K, Km = 20 μM; and SHP2cat, Km = 20 μM. Relative maximum rates (Vmax) of the DiFMUP reactions expressed as relative fluorescence units per minute (RFU/min) were as follows: SHP2-WT, Vmax = 871 RFU/min; SHP2-E76K, Vmax = 2730 RFU/min; and SHP2cat, Vmax = 2912 RFU/min. IC50 values for each compound were determined from initial rates in 10-point dose–response assays using DiFMUP at a concentration corresponding to its Km value for the respective SHP2 construct. […] Replacements for the benzothiophenone were explored using analog #10.
Recombinant human full-length SHP2 (1–594) WT and E76K mutants, as well as the SHP2cat (248–527), were expressed and purified as described before ([36], [41]). Recombinant human PTP1B (1–300) and the codon-optimized STEP (280–566) catalytic domains were cloned into PET-15b and expressed as N-His-tagged fusion proteins. For expression, transformed BL21(DE3) cells were grown and induced similar as described for SHP2. Collected cells were resuspended in lysis buffer (25 mM Tris, pH 7.5, 300 mM NaCl, 50 mM imidazole, and 10% glycerol) with 100 mg/l RNaseA and were lysed with two passages using a microfluidizer. The lysate was clarified by centrifugation at 15,000g for 50 min and applied to nickel–nitrilotriacetic acid resin. The column resin was washed, and the PTP1B or STEP protein was eluted in lysis buffer at 300 mM imidazole. The PTP1B or STEP protein was further purified by S75 size-exclusion chromatography in 50 mM Tris, pH 7.5, 50 mM NaCl. The eluted peak fractions were supplemented with tris(2-carboxyethyl)phosphine to 10 mM, concentrated by ultrafiltration, and stored at −80 °C. The purified yield of PTP1B was 33 mg/l cell culture; the yield of STEP was 16 mg/l cell culture.
SHP2 inhibitors were tested at RT in a 384-well plate format standard phosphatase fluorescence intensity assay using DiFMUP (Invitrogen/Thermo Fisher Scientific) as a substrate and a total reaction volume of 25 μl. SHP2 inhibitors or vehicle (DMSO) were spotted in triplicate into a black Greiner FLUOTRAC 200 384-well microplate (catalog no.: 781076; Greiner) for a 10-point dose–response assay using an Echo 555 Liquid Handler (Labcyte, Inc). PTP working solutions were prepared at a 0.625 nM concentration (for a final concentration of 0.5 nM) in buffer containing 50 mM Bis–Tris, pH 6.0, 50 mM NaCl, 5 mM DTT, and 0.01% Tween-20. Prior to the assay, a dually phosphorylated IRS-1 peptide (625 nM [500 nM final] ([30])) was added to full-length WT SHP2 working solutions and incubated for 20 min. DiFMUP working solutions at 5× final concentration were prepared in 50 mM Bis–Tris, pH 6.0, 50 mM NaCl, and 0.01% Tween-20. About 20 μl of PTP working solution was dispensed into the microplate and incubated with inhibitor for 20 min at RT. […] The reaction was initiated by addition of 5 μl DiFMUP working solutions. Fluorescence intensity was measured in kinetic mode (every minute for 7 or 10 min) using a Tecan Spark Multimode Microplate Reader (Tecan) with an excitation wavelength of 360 nm and an emission wavelength of 460 nm. […]

[2] = system: Kasumi-1 acute myeloid leukemia (AML) cells; test: Cell viability (CellTiter-Glo), Kasumi-1; type: cell-based; conditions: various concentrations, 3 days
Experimental: (§1) Inhibition of SHP2 has been reported to inhibit the growth of cancer cells including Kasumi-1 acute myeloid leukemia (AML) and KYSE-520 esophageal cancer cells ([30]). […] Thus, we treated two TNBC cell lines, BT-549 and MDA-MB-468, with SBI-4668 or the SHP2 allosteric inhibitor SHP099 at various concentrations and determined cell viability after 72 h, compared with the vehicle control (Fig. 4C). […] Next, we performed an 11-day colony formation assay with TNBC cells treated with SBI-4668 or SHP099 at 5, 10, or 20 μM (Fig. 4D).
(§2) Viability of AML and esophageal carcinoma cells was assessed using the ATP-depletion assay CellTiter-Glo (Promega). Cells were harvested at 1 × 10^6/ml to 2 × 10^6 cells/ml with cell numbers determined by trypan blue using the Countess Cell counter (Thermo Scientific) and resuspended in culture media. About 3000 cells (in 20 μl) were seeded in a 384-well format white and clear-bottom microplate (catalog no.: 781098; Greiner) spotted with test compound or vehicle control (DMSO) using an Echo 555 Liquid Handler. Cells were incubated for 3 days, before 10 μl of CellTiter-Glo reagent mix was added to each well and incubated for 10 min at RT. Luminescence was read on a Tecan Spark Multimode Microplate Reader, and data were analyzed using GraphPad Prism software.

[3] = system: KYSE-520 esophageal cancer cells; test: Cell viability (CellTiter-Glo), KYSE-520; type: cell-based; conditions: various concentrations, 3 days
Experimental: as §1, §2

[4] = system: MOLM-13 AML cells; test: Cell viability (CellTiter-Glo), MOLM-13; type: cell-based; conditions: 72 h, 30 μM to 58 nM, regular MOLM-13 expressing WT SHP2 (Fig. 4G); read-out: MOLM-13 cell viability IC50 (parallel to SHP2 KO)
Experimental: as §1
Finally, we evaluated the selectivity of our top two compounds, SBI-2130 and SBI-4668, on MOLM-13 AML cells in which SHP2 was depleted using CRISPR–Cas9 KO. High-efficiency Cas9-editing MOLM-13 cells were generated by transducing MOLM-13 cells with a Cas9 lentiviral construct. Stable clones were tested for editing efficiency by performing tracking of indels by decomposition analysis ([45]), and these MOLM-13-Cas9 cells were transduced with a lentiviral construct containing an AAVS1 single-guide RNA (sgRNA) and an mCherry reporter for bulk sorting of cells with successful AAVS1 editing. SHP2 KO was achieved by transducing MOLM-13-Cas9-mCherry cells with a lentivirus, containing SHP2 dual sgRNAs, resulting in ∼80% reduction of SHP2 protein levels (Fig. 4G). SBI-2130, SBI-4668, and the SHP2 allosteric inhibitor, SHP099, were tested in parallel on regular MOLM-13 cells (expressing WT SHP2) and MOLM-13-Cas9-mCherry cells with SHP2 KO. Cells were treated with inhibitors at various concentrations (ranging from 30 μM to 58 nM) or vehicle control (DMSO) for 72 h, before cell viability was assessed.
as §2, with “Cells were incubated for 3 days, before 10 μl of CellTiter-Glo reagent mix was added to each well and incubated for 10 min at RT.” left out
For SHP2 KO, dual sgRNAs targeting SHP2 were cloned in the pLentiGuide puro vector (Addgene plasmid no. 52963 from Dr Feng Zhang) using a published protocol ([50]). […] SHP2 KO was evaluated by immunoblotting. […] For SHP2 KO, MOLM-13-Cas9-mCherry cells were seeded in nontreated 6-well plates (2 × 10^6 cells/well in 2.5 ml), with cell numbers determined by trypan blue using the Countess Cell Counter (Thermo Scientific). […]

[5] = system: BT-549 TNBC cells; test: TNBC cell viability (CellTiter-Glo), BT-549; type: cell-based; conditions: various concentrations
Experimental: as §1
(§3) Triple-negative breast cancer cell viability was assessed using the ATP-depletion assay CellTiter-Glo. Briefly, 2500 cells in 25 μl media (RPMI + 10% FBS + 1× penicillin–streptomycin [Omega Scientific]) were seeded per well of a 384-well tissue culture–treated plate (Greiner). About 25 nl of 1000× test compound were added using a Labcyte Echo acoustic dispenser, and the cells were incubated for 5 days before addition of 10 μl of CellTiter-Glo reagent as described by the manufacturer. Luminescence was detected on a BioTek Synergy 2 microplate reader, and the values normalized to those of vehicle (DMSO)-treated controls before being plotted using GraphPad Prism.

[6] = system: MDA-MB-468 TNBC cells; test: TNBC cell viability (CellTiter-Glo), MDA-MB-468; type: cell-based; conditions: various concentrations
Experimental: as §1, §3

[7] = system: BT-549 TNBC cells; test: 11-day colony formation assay, BT-549; type: cell-based; conditions: 5, 10 or 20 μM, 11 days
Experimental: as §1
(§4) MDA-MB-468 and […] triple-negative breast cancer cells were maintained in Dulbecco's modified Eagle's medium + 10% FBS supplemented with 1× penicillin–streptomycin/L-glutamine (Omega Scientific). About 1500 cells (in 300 μl) were seeded per well of a standard 24-well tissue culture plate (Falcon) and allowed to adhere for 24 h, before the addition of compound(s) as described. After a further 96 h, media were replaced with fresh media containing the same test compounds and concentrations. After 11 days, media were removed, and cells stained with 0.5% crystal violet (in 20% methanol; Sigma) for 20 min with agitation at 80 rpm. Stain was removed, and plates with stained cells were washed by being submerged in excess deionized water and allowed to air dry overnight before imaging.

[8] = system: MDA-MB-468 TNBC cells; test: 11-day colony formation assay, MDA-MB-468; type: cell-based; conditions: 5, 10 or 20 μM, 11 days
Experimental: as §1, §4

Structure (SMILES)	IC50 [1]	effect on Kasumi-1 cell growth [2]	effect on KYSE-520 cell growth [3]	IC50 [4]	effect on BT-549 cell viability [5]	effect on MDA-MB-468 cell viability [6]	colony formation, BT-549 [7]	colony formation, MDA-MB-468 [8]
CC(C)NC(=O)c1cccc(-c2ccc(/C=C3\Sc4ccccc4C3=O)o2)c1 [SBI-9639, (Z)-N-isopropyl-3-(5-((3-oxobenzo[b]thiophen-2(3H)-ylidene)methyl)furan-2-yl)benzamide]	> 100 µM	no notable effects	no notable effects	–	–	–	–	–
CC1(N)CCN(c2cnc(-c3cccc(Cl)c3Cl)c(N)n2)CC1 [SHP099, reference compound]	–	–	–	9.4 µM	very minor effect	very minor effect	very weak effect	very weak effect
